# US10376512B1, “Crystal of aniline pyrimidine compound of trifluoroethyl substituted indole and salt thereof” (CHIA TAI TIANQING PHARMACEUTICAL GROUP CO., LTD., priority 2018, dated 2019)
# Assay: Stability test for crystals under accelerated conditions (light, high temperature, high humidity)
# Format: physicochemical
# Details: light 5000 Lx±500 Lx; high temperature 60° C.±2° C.; high humidity 75% RH±5% RH; samples taken on the 5th, 10th and 30th day
# Description: The stability of the crystal according to the disclosure may be detected by placing the crystal in a high temperature, a high humidity, or a lighting condition. 40-60° C. may be selected for the high temperature, the relative humidity of 75%-92.5% RH may be selected for the high humidity condition, and 5000 Lux may be selected for the lighting condition. The crystal stability may be evaluated by investigating a plurality of data, such as content, total content of impurities, or water content, of the sample, and comprehensively evaluating the parameters according to the properties of the product.
# The stability of the crystal according to the disclosure was investigated under accelerated test conditions according to the Guiding Principles for Stability Test of Crude Drugs and Pharmaceutical Preparations. The stabilities of the crystals obtained in Examples 1-8 were tested in a light environment at 5000 Lx±500 Lx, a high temperature environment at 60° C.±2° C., and a high humidity environment at 75% RH±5% RH, respectively. Samples were taken on the 5th day, the 10th day, and the 30th day, respectively, and the appearance properties, moisture contents, and total impurities of related substances of the samples were recorded for comparison with the initial data.
smiles,measurement,value
C=CC(=O)Nc1cc(Nc2nccc(-c3cn(CC(F)(F)F)c4ccccc34)n2)c(OC)cc1N(C)CCN(C)C [Example 3],"stability (appearance properties, moisture contents, total impurities of related substances compared with the initial data)",better stability
